# Columns and labels:
# Conditions in all cases: incubation time: 72 h
# [1] = system: CAL-148; test: normalised response (% of control), CellTiter-Glo; higher = more viable cells (100 = DMSO, 0 = benzethonium chloride kill control)
# Procedure, shortened: (§1)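 Each value is the plate-normalised signal at one concentration of the series. Breast cancer cell lines (20 µl suspension) were incubated 72 h in 384-well plates with compound at 5 concentrations in 10-fold steps over a compound-specific 10,000-fold range. CellTox Green and then CellTiter-Glo were read, and each plate was scaled to 0.1 % DMSO (100) and a positive kill control (0).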
# [2] = system: HCC1599; test: as above
# Procedure, shortened: as §1
# [3] = system: MDA-MB-231; test: as above
# Procedure, shortened: as §1
# [4] = system: DU-4475; test: as above
# Procedure, shortened: as §1
# [5] = system: BT-474; test: as above
# Procedure, shortened: as §1
# [6] = system: CAL-51; test: as above
# Procedure, shortened: as §1
# [7] = system: SK-BR-3; test: as above
# Procedure, shortened: as §1
# [8] = system: HDQ-P1; test: as above
# Procedure, shortened: as §1
# [9] = system: MCF-10A; test: as above
# Procedure, shortened: as §1
# [10] = system: MDA-MB-436; test: as above
# Procedure, shortened: as §1
# [11] = system: CAL-85-1; test: as above
# Procedure, shortened: as §1
# [12] = system: Hs578T; test: as above
# Procedure, shortened: as §1
# [13] = system: MDA-MB-468; test: as above
# Procedure, shortened: as §1
# [14] = system: HCC1143; test: as above
# Procedure, shortened: as §1
# [15] = system: MDA-MB-453; test: as above
# Procedure, shortened: as §1
# [16] = system: CAL-120; test: as above
# Procedure, shortened: as §1
# [17] = system: MFM-223; test: as above
# Procedure, shortened: as §1
# [18] = system: HCC1937; test: as above
# Procedure, shortened: as §1
# [19] = system: BT-549; test: as above
# Procedure, shortened: as §1
# [20] = system: CAL-148; test: normalised response (% of control), CellTox Green; higher = less cell death (100 = DMSO, 0 = benzethonium chloride kill control)
# Procedure, shortened: as §1
# [21] = system: HCC1599; test: as above
# Procedure, shortened: as §1
# [22] = system: MDA-MB-231; test: as above
# Procedure, shortened: as §1
# [23] = system: DU-4475; test: as above
# Procedure, shortened: as §1
# [24] = system: BT-474; test: as above
# Procedure, shortened: as §1
# [25] = system: CAL-51; test: as above
# Procedure, shortened: as §1
# [26] = system: HDQ-P1; test: as above
# Procedure, shortened: as §1
# [27] = system: MCF-10A; test: as above
# Procedure, shortened: as §1
# [28] = system: MDA-MB-436; test: as above
# Procedure, shortened: as §1
# [29] = system: CAL-85-1; test: as above
# Procedure, shortened: as §1
# [30] = system: Hs578T; test: as above
# Procedure, shortened: as §1
# [31] = system: MDA-MB-468; test: as above
# Procedure, shortened: as §1
# [32] = system: HCC1143; test: as above
# Procedure, shortened: as §1
# [33] = system: MDA-MB-453; test: as above
# Procedure, shortened: as §1
# [34] = system: CAL-120; test: as above
# Procedure, shortened: as §1
# [35] = system: MFM-223; test: as above
# Procedure, shortened: as §1
# [36] = system: HCC1937; test: as above
# Procedure, shortened: as §1
# [37] = system: BT-549; test: as above
# Procedure, shortened: as §1
Compound,normalised response [1] [%],normalised response [2] [%],normalised response [3] [%],normalised response [4] [%],normalised response [5] [%],normalised response [6] [%],normalised response [7] [%],normalised response [8] [%],normalised response [9] [%],normalised response [10] [%],normalised response [11] [%],normalised response [12] [%],normalised response [13] [%],normalised response [14] [%],normalised response [15] [%],normalised response [16] [%],normalised response [17] [%],normalised response [18] [%],normalised response [19] [%],normalised response [20] [%],normalised response [21] [%],normalised response [22] [%],normalised response [23] [%],normalised response [24] [%],normalised response [25] [%],normalised response [26] [%],normalised response [27] [%],normalised response [28] [%],normalised response [29] [%],normalised response [30] [%],normalised response [31] [%],normalised response [32] [%],normalised response [33] [%],normalised response [34] [%],normalised response [35] [%],normalised response [36] [%],normalised response [37] [%]
C[C@]12CC[C@H](O)CC1=CC[C@@H]1[C@@H]2CC[C@]2(C)C(c3cccnc3)=CC[C@@H]12 [Abiraterone] (500 nM),105,107,105,105,90.7,65.6,103,99.2,112,96,104,106,98,98.8,99.3,97.1,101,98.7,99.1,94.8,110,127,101,103,101,108,102,88.8,96,114,92,104,104,99.1,104,123,135
CN1CCN(CCOc2cc(OC3CCOCC3)c3c(Nc4c(Cl)ccc5c4OCO5)ncnc3c2)CC1 [Saracatinib] (1000 nM),84.1,119,64.6,94,71.1,74.3,92.7,53.2,41.5,93.9,61.7,96.1,79.2,74.6,88.2,81.9,89.7,83.3,89.9,99.3,96,77.6,98.9,96.4,68.5,86.8,106,77.6,68.5,83.4,181,76.8,101,96.6,93.9,86.5,93
CC[C@]1(O)C[C@H]2CN(CCc3c([nH]c4ccccc34)[C@@](C(=O)OC)(c3cc4c(cc3OC)N(C=O)[C@H]3[C@@](O)(C(=O)OC)[C@H](OC(C)=O)[C@]5(CC)C=CCN6CC[C@]43[C@@H]65)C2)C1 [Vincristine] (100 nM),47.8,21.6,53.2,71.1,58.5,46.3,13.6,79.3,72.7,28.6,40.8,24.1,32.9,60.9,57.9,63.2,45.8,72.8,42.1,82.8,82.2,3.37,100,75.3,40.1,93,-44.4,73.6,69.3,62.5,38.5,94.3,97.3,86.3,15.3,62.1,44.2
C/C(=C\c1csc(C)n1)[C@@H]1C[C@@H]2O[C@]2(C)CCC[C@H](C)[C@H](O)[C@@H](C)C(=O)C(C)(C)[C@@H](O)CC(=O)O1 [Patupilone] (100 nM),37.4,102,73,72.4,75.1,24.4,17.4,74.6,61.4,35.4,25.8,39.6,26.2,42.8,71.8,71.4,86.8,75.9,16.3,50.5,95.6,65.7,94.5,58.5,36.3,71.9,77.1,40.1,38.6,96.1,-2.53,103,93.6,77.9,84.1,81.2,90.3
CO[C@H]1C[C@@H]2CC[C@@H](C)[C@@](O)(O2)C(=O)C(=O)N2CCCC[C@H]2C(=O)O[C@H]([C@H](C)C[C@@H]2CC[C@@H](OCCO)[C@H](OC)C2)CC(=O)[C@H](C)/C=C(\C)[C@@H](O)[C@@H](OC)C(=O)[C@H](C)C[C@H](C)/C=C/C=C/C=C/1C [Everolimus] (10 nM),51.9,88.8,85.7,68.2,80.7,61.6,53.7,78.7,79.2,77.8,67.1,71.9,52.1,62.6,55.2,64.9,62.6,69.7,64.9,88,91.6,103,96,99.8,97.5,105,106,81.7,109,85.6,178,109,104,101,71.1,114,51
CC(C)(C#N)c1cc(Cn2cncn2)cc(C(C)(C)C#N)c1 [Anastrozole] (1000 nM),93.3,123,106,98.2,104,122,108,96.5,105,100,103,103,106,101,96.9,96.7,105,94.5,99.2,93.9,102,104,100,99.8,113,111,105,103,110,62.7,85.1,61.9,96.5,101,101,106,106
Cn1c(=O)n(-c2ccc(C(C)(C)C#N)cc2)c2c3cc(-c4cnc5ccccc5c4)ccc3ncc21 [Dactolisib] (100 nM),30.4,80.4,50.4,41,62.1,31.7,30,52.7,45.2,62,39.9,35.2,39,45.5,38.8,29.1,39.1,57.3,23.8,72.8,103,108,94.5,104,104,109,108,110,94.4,108,134,109,98,89.3,99.3,65,134
COc1ccccc1S(=O)(=O)Nc1ccc2c(c1)CN(C)C(=O)N2 [PFI-1] (1000 nM),107,86.7,89.2,97.7,89.8,87.7,103,91.9,98.6,93.9,87,85,95,94.1,91.1,91.3,97.8,90.9,76.9,103,110,105,107,98.7,116,109,105,115,121,98.2,140,95,121,111,87.8,91.9,111
